The values that follow come from patent US20250352588A1, “EFFECT OF A PROBIOTIC COMPOSITION ON VAGINAL LACTOBACILLUS SPECIES” (INTERNATIONAL N&H DENMARK APS, priority 2021, published 2025).

Assay [1] deals with Lactobacillus crispatus 13331. As to the kind of experiment: Growth experiments with probiotic supernatant and biogenic amines (OD600, 44 h). It counts as cell-based. The settings on record: highest physiological concentration (cadaverine 4990 μM, putrescine 3179 μM); putrescine effect from 0.5 h to end of experiment. As for the experimental part: The growth experiment was performed as described above but with some modifications. The Lactobacillus crispatus strain was cultured in SVF media (control), and in the SVF media containing one of the biogenic amines, and in the SVF media containing one of the biogenic amines and probiotic supernatant. The effect of all five biogenic amines was investigated independently on the pure culture of Lactobacillus crispatus 13331. Each test condition was investigated in triplicates in the honey-comb plate. […] The growth study was performed in SVF pH 4.5 using Bioscreen© C system measuring the optical density at 600 nm every 30 min for 44 h at 37° C. […] Growth experiments were performed in three independent biological replicates.

For assay [2], the system named is L. crispatus strains. The settings on record: Borgogna et al., 2021; cited from earlier work.

Consider `NCCCCCN` [cadaverine], for which, in assay [1], the “growth in the presence of biogenic amine alone vs strain alone (control)” value is recorded as “no statistically significant difference in growth”.
`NCCCCN` [putrescine]: in assay [1], the “growth in the presence of biogenic amine alone vs strain alone (control)” value was “significant reduction in the growth”. For the same compound, the “effect on growth of L. crispatus strains” value in assay [2] is given as “negatively affect the growth”.
